Data published in PMC10757563 (Nature chemical biology, 2023).

Test system: ribosome
Experiment: Toeprinting analysis of ribosome arrest during in vitro translation
Type: biochemical
Conditions: model yrbA-fs15 ORF with UAG stop codon; 50 μM

SMILES: C=C[C@]1(C)C[C@@H](OC(=O)CS[C@@H]2C[C@H]3CC[C@@H](C2)N3C)[C@]2(C)[C@H](C)CC[C@]3(CCC(=O)[C@H]32)[C@@H](C)[C@@H]1O [retapamulin]
- ribosome arrest site (toeprint): ribosomes arrested at the start codon
